Test results taken from patent EP4656642A1, “ESTROGEN RECEPTOR PROTEOLYSIS TARGETING CHIMERA COMPOUND AND USE THEREOF” (GAN & LEE PHARM CO., LTD, priority 2023, dated 2024).

Experiments:
Assay type in all cases: cell-based
ERα [1] = molecular target: T1, ERα (Homo sapiens, UniProt P03372); experiment: Degradation of ERα in MCF-7 cells (immunoblotting, 4 h)
T1 sequence (P03372 1-595): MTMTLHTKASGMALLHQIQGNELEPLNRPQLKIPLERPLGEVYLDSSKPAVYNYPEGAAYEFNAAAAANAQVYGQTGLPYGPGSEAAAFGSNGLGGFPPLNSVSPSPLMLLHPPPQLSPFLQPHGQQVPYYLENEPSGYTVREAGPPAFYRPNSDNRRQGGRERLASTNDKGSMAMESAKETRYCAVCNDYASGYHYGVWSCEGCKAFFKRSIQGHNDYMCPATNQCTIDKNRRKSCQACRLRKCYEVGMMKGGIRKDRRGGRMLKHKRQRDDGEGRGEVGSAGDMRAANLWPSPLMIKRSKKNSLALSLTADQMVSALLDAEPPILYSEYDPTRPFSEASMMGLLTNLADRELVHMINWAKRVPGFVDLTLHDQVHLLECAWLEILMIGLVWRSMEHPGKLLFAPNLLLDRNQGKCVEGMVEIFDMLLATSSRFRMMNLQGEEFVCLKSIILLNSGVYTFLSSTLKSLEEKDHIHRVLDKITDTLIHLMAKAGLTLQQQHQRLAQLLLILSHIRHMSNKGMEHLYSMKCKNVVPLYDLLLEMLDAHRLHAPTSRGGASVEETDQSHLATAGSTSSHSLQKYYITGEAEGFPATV
How it was run: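 Degradation rate reflects ERα band intensity, corrected to an internal reference protein, relative to control. Values come from Western blotting of lysates from MCF-7 cells exposed 4 h at 37°C to compounds at final concentrations of 0.15-1000nM.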

ERα [2] = molecular target: T1, ERα; experiment: Degradation of ERα in T-47D cells (immunoblotting, 4 h); design: host or cells: T-47D
How it was run: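 ERα protein levels were assessed by immunoblot of RIPA lysates (with protease inhibitor) after 4 h exposure at 37°C. Compound was added in DMSO to T-47D cells at final concentrations of 0.15-1000 nM.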

MCF-7 cells = experiment: Inhibition of cell proliferation of MCF-7 cells (CCK-8, 9 days); conditions: treated for 9 days, CCK-8 kit (Table 6)
How it was run: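 Read-out was CCK-8 viability after 9-day continuous exposure (37°C, 5% CO2) of MCF-7 cells plated at 800/well in 10% FBS DMEM across several compound concentrations. Values are proliferation IC50s.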

T-47D cells = experiment: Inhibition of cell proliferation in T-47D cells (CCK-8, 6 days); conditions: 6 days of treatment
Source text: Test Example 2: Inhibitory effect of the PROTAC compounds provided in the present disclosure on cell proliferation in T-47D cells (source ATCC)
The complete medium required for T-47D cells was 1640 ( ATCC, Product number: A10491-01) basal medium containing 10% fetal bovine serum. T-47D cells were inoculated in 96-well plates at a density of 3,000 cells/well, and different concentrations of the PROTAC compounds 1-55 provided in the examples of the present disclosure and a positive control sample ARV-471 (source: Innochem) were prepared to treat cells, and the cells were treated at 37°C in a cell culture incubator with 5% CO2 for 6 days. Cell viability was detected using a CCK-8 kit (Beyotime, Product number: C0040) according to the manufacturer's instructions. […] Table 2 IC50 values for inhibition of the proliferation of T-47D cells by the PROTAC compounds provided by the present disclosure and the positive control sample

Row | SMILES | Degradation rate (%) of ERα in MCF-7 cells (ERα [1]; 1nM compound) | Degradation rate (%) of ERα in MCF-7 cells (ERα [1]; 10nM compound) | Degradation rate (%) of ERα in T-47D cells (ERα [2]; 1nM compound) | Degradation rate (%) of ERα in T-47D cells (ERα [2]; 10nM compound) | IC50 (MCF-7 cells) | IC50 (T-47D cells; Table 3) | IC50 (T-47D cells; Table 2)
1 | C[C@@H]1Cc2c(ccc3[nH]ncc23)[C@@H](c2c(F)cc(N3CCC(C(=O)N4CCC(N5CCC6(CC5)COc5c6ccc6c5CN(C5CCC(=O)NC5=O)C6=O)CC4)CC3)cc2F)N1CC(F)F (stereo partly shown) [B38] | 63% | 57% | 57% | 63% | 90.5 nM | 1.23 nM | –
2 | O=C1CCC(N2Cc3c(ccc4c3OCC43CCN(C(=O)C4CC5(CCN(c6ccc([C@@H]7c8ccc(O)cc8CC[C@@H]7c7ccccc7)cc6)CC5)C4)CC3)C2=O)C(=O)N1 (stereo partly shown) [A86] | 5% | 32% | 46% | 74% | 85 nM | 1.64 nM | –
3 | O=C1CCC(N2Cc3cc4c(cc3C2=O)OC2(CC4)CN(C3CCC4(CC3)CN(c3ccc([C@@H]5c6ccc(O)cc6CC[C@@H]5c5ccccc5)cc3)C4)C2)C(=O)N1 (stereo partly shown) [B9] | 0% | 17% | 16% | 45% | 86 nM | 7 nM | –
4 | O=C1CCC(N2Cc3cc4c(cc3C2=O)CCC2(CN(C3CCN(C5CCN(c6ccc([C@@H]7c8ccc(O)cc8CC[C@@H]7c7ccccc7)cc6)CC5)CC3)C2)O4)C(=O)N1 (stereo partly shown) [A53] | 10% | 45% | 37% | 66% | < 0.256 nM | 3.87 nM | –
5 | O=C1CCC(N2C(=O)c3cc4c(cc3C2=O)OCC2(CCN(CC3CCC5(CC3)CCN(c3ccc([C@@H]6c7ccc(O)cc7CC[C@@H]6c6ccccc6)cc3)CC5)CC2)C4)C(=O)N1 (stereo partly shown) [A42] | -49% | -36% | 41% | 30% | 38 nM | 60 nM | –
6 | C[C@@H]1Cc2c([nH]c3ccccc23)[C@@H](c2c(F)cc(N3CCC(C(=O)N4CCC(N5CCC6(CC5)COc5c6ccc6c5CN(C5CCC(=O)NC5=O)C6=O)CC4)CC3)cc2F)N1CC(F)F (stereo partly shown) [A106] | 19% | 62% | 43% | 74% | 190 nM | 1.2 nM | –
7 | O=C1CCC(N2Cc3cc4c(cc3C2=O)CCC2(CN(C(=O)C3CCC5(CC3)CN(c3ccc([C@@H]6c7ccc(O)cc7CC[C@@H]6c6ccccc6)cc3)C5)C2)O4)C(=O)N1 (stereo partly shown) [A46] | -22% | -26% | 7% | 33% | 1250 nM | 10.6 nM | –
8 | CC1(CN2CCC3(CC2)COc2c3ccc3c2CN(C2CCC(=O)NC2=O)C3=O)CCN(CC2CCN(c3ccc([C@@H]4c5ccc(O)cc5CC[C@@H]4c4ccccc4)cc3)CC2)CC1 (stereo partly shown) [B37] | 11% | 41% | 12% | 36% | 2800 nM | 8.54 nM | –
9 | C[C@@H]1Cc2c(ccc3[nH]ncc23)[C@@H](c2c(F)cc(N3CCN(C[C@H]4CC[C@H](C(=O)N5CCC6(CC5)COc5c6ccc6c5CN(C5CCC(=O)NC5=O)C6=O)CC4)CC3)cc2F)N1CC(F)F (stereo partly shown) [C12] | -34% | 22% | 27% | 47% | 180 nM | 37.4 nM | –
10 | C[C@@H]1Cc2c(ccc3[nH]ncc23)C(c2ccc(N3CC4(CCC(N5CCC6(CC5)COc5c6ccc6c5CN(C5CCC(=O)NC5=O)C6=O)CC4)C3)cn2)N1CC(F)(F)F (stereo partly shown) [B49] | 24% | 43% | 42% | 68% | 7150 nM | 316 nM | –
11 | O=C1CCC(N2C(=O)c3cc4c(cc3C2=O)OC2(CC4)CN(C3CCC4(CC3)CN(c3ccc(C5c6ccc(O)cc6CCC5c5ccccc5)cc3)C4)C2)C(=O)N1 (stereo not shown) [B7] | – | -6% | – | 19% | > 100 nM | – | 1000 nM
12 | O=C1CCC(N2Cc3cc4c(cc3C2=O)OC2(CC4)CN(C(=O)[C@H]3CC[C@H](CN4CCN(c5ccc([C@@H]6c7ccc(O)cc7CC[C@@H]6c6ccccc6)cc5)CC4)CC3)C2)C(=O)N1 (stereo partly shown) [C8] | 29% | 40% | 60% | 78% | 2730 nM | 0.99 nM | –
13 | CN(C(=O)CN1CCC2(CC1)COc1c2ccc2c1C(=O)N(C1CCC(=O)NC1=O)C2=O)C1CCC2(CC1)CCN(c1ccc([C@@H]3c4ccc(O)cc4CC[C@@H]3c3ccccc3)cc1)CC2 (stereo partly shown) [C15] | 18% | 45% | 41% | 71% | 406 nM | 9.07 nM | –
14 | O=C1CCC(N2Cc3c(ccc4c3OCC43CCN(C4CCN(C5CCN(c6ccc([C@@H]7c8ccc(O)cc8CC[C@@H]7c7ccccc7)cc6)CC5)CC4F)CC3)C2=O)C(=O)N1 (stereo partly shown) [H34] | 42% | 65% | 30% | 77% | 10.9 nM | 1.33 nM | –
15 | O=C1CCC(N2C(=O)c3ccc4c(c3C2=O)OC2(CC4)CCN(C3CCC4(CC3)CN(c3ccc([C@@H]5c6ccc(O)cc6CC[C@@H]5c5ccccc5)cc3)C4)CC2)C(=O)N1 (stereo partly shown) [L8] | 27% | 27% | 32% | 21% | 990 nM | 13.5 nM | –
16 | O=C1CCC(N2Cc3c(ccc4c3OCC43CCN(C4CCN(C5CC6(CCN(c7ccc([C@@H]8c9ccc(O)cc9CC[C@@H]8c8ccccc8)cc7)CC6)C5)[C@H](C(=O)NC5CCCC5)C4)CC3)C2=O)C(=O)N1 (stereo partly shown) [H44] | 36% | 73% | 53% | 85% | 5.06 nM | 3.74 nM | –
